≈ marks a conversion by molar mass, not a printed value.
Key:
[1] = test system: K562 cells (human chronic myelogenous leukemia); experiment: MTT cytotoxicity assay, K562; type: cell-based; conditions: 72 h incubation, mean ± SD
Method: (§1) The cell viability was analyzed at the following six concentrations of compounds: 5, 10, 20, 40, 60 and 100 µM after 72 h incubation.
(§2) Additionally, to determine the safety profile of the tested compounds, the therapeutic index (TI) (the ratio of IC50 value in HaCaT to cancer cells K562) was calculated. […] The goal of conducting the MTT assay in this research was to select benzofuran derivatives, which manage to reduce viability of cancer cells while exposing mild effects on normal healthy cells.
(§3) The cytotoxicity was evaluated by MTT reduction assay, which measures mitochondrial respiratory function. The test was performed based on the method described by Präbst et al.. Cells (1 × 10^4/well), in logarithmic phase, were seeded into 96-well plates in appropriate medium. After 24 h, cells were exposed to test compounds. […] After 72 h, the medium with the compounds was completely removed and MTT solution (0.5 mg/mL) in fresh medium without serum was added to each well. Plates with cells were incubated for 4 h at 37 °C in the dark. Then, MTT solution was removed and replenished with 0.1 mL DMSO: isopropanol (1:1) mixture to dissolve the generated formazan crystals. The optical density was measured with a […] GO (ThermoScientific) microplate reader at 570 nm. Replicates of three wells for each dosage, including vehicle control, were analyzed for each experiment. The experiments were conducted in triplicate. Control cells which were only treated with respective medium were used as the 100% viability value. […] Additionally, to determine the safety profile of the test compounds, therapeutic indexes (TI) (the ratio of IC50 values in HaCat to cancer cells (K562, PC3, SW620, Cack-1)) were calculated.

[2] = test system: SW620 cells (human metastatic colon cancer); experiment: MTT cytotoxicity assay, SW620; type: cell-based; conditions: SW-620, 72 h incubation, mean ± SD
Method: as §1, §2, §3

[3] = test system: Cacki-1 cells (human clear cell renal cell carcinoma); experiment: MTT cytotoxicity assay, Cacki-1; type: cell-based; conditions: 72 h incubation
Method: as §1, §2, §3

[4] = test system: HaCaT cells (human immortal keratinocytes); experiment: MTT cytotoxicity assay, HaCaT; type: cell-based; conditions: 72 h incubation, mean ± SD
Method: as §1, §2, §3

[5] = test system: PC3 cells (human metastatic prostate cancer); experiment: MTT cytotoxicity assay, PC3; type: cell-based; conditions: PC-3, 72 h incubation, mean ± SD
Method: as §1, §2, §3

[6] = test system: HL-60 leukemic cell line; parameters: method as in PMID 20657389, PMID 25482722, PMID 30465514, PMID 31003438; conditions: lead compound; ref [32],[33],[34],[35]; cited from earlier work
[7] = test system: HeLa cancer cells; parameters: method as in PMID 20657389, PMID 25482722, PMID 30465514, PMID 31003438; conditions: lead compound; ref [32],[33],[34],[35]; cited from earlier work
[8] = test system: K562 leukemic cell line; parameters: method as in PMID 20657389, PMID 25482722, PMID 30465514, PMID 31003438; conditions: lead compound; ref [32],[33],[34],[35]; cited from earlier work
[9] = test system: E. coli ATCC 25922; experiment: MIC, microdilution; type: cell-based; conditions: Escherichia coli, ATCC25922; 18 h, 35 °C, MH II medium
Method: (§4) The antimicrobial studies for all of the obtained compounds were conducted using reference strains of bacteria derived from international microbe collections—the American Type Culture Collection (ATCC) and the National Collection of Type Culture (NCTC). Among the reference strains there were two Gram-negative rods (P. aeruginosa ATCC 15442 and E. coli ATCC 25922) and six Gram-positive isolates (Staphylococcus aureus: NCTC 4163, ATCC 25923, ATCC 6538, ATCC 29213, S. epidermidis ATCC 12228, ATCC 35984).
(§5) The antimicrobial activity of compounds was expressed by minimum inhibitory concentration values (MICs), according to CLCI reference procedures with some modifications. MIC was tested by the two-fold serial microdilution method (in 96-well microtiter plates) on MH II liquid medium. The final inoculum of all of the studied bacteria was 10^6 CFU/mL (colony forming unit per mL). The stock solution of tested compounds was prepared in DMSO and was diluted in sterile medium (to a maximum of 1% of solvent content). The concentrations of compounds were from 16 to 512 µg/mL. […] Clinical microorganisms used in this study were obtained from the collection of the Department of Pharmaceutical Microbiology, Medical University of Warsaw, Poland [70, 71].

[10] = test system: S.aureus ATCC 25923; experiment: MIC, microdilution; type: cell-based; conditions: Staphylococcus aureus, ATCC25923; 18 h, 35 °C, MH II medium
Method: as §4, §5

[11] = test system: S. epiderminis ATCC 122228; experiment: MIC, microdilution; type: cell-based; conditions: Staphylococcus epidermidis, ATCC122228, 18 h, read-out: MIC S. epiderminis ATCC 122228
Method: as §4, §5

[12] = test system: P. aeruginosa ATCC 15442; experiment: MIC, microdilution; type: cell-based; conditions: Pseudomonas aeruginosa, ATCC15442; 18 h, 35 °C, MH II medium
Method: as §4, §5

[13] = test system: S.aureus NCTC 4163; experiment: MIC, microdilution; type: cell-based; conditions: Staphylococcus aureus, NCTC4163; 18 h, 35 °C, MH II medium
Method: as §4, §5

[14] = test system: S.aureus ATCC 6538; experiment: MIC, microdilution; type: cell-based; conditions: Staphylococcus aureus, ATCC6538; 18 h, 35 °C, MH II medium
Method: as §4, §5

[15] = test system: S. epidermidis ATCC 35984; experiment: MIC, microdilution; type: cell-based; conditions: Staphylococcus epidermidis, ATCC35984; 18 h, 35 °C, MH II medium
Method: as §4, §5

[16] = test system: S.aureus NCTC 29213; experiment: MIC, microdilution; type: cell-based; conditions: Staphylococcus aureus, NCTC29213, 18 h, read-out: MIC S.aureus NCTC 29213
Method: as §4, §5

[17] = test system: clinical strains; experiment: organism not typed; type: cell-based; conditions: read-out: MIC clinical strains
Method: as §5

| Compound | IC50 [1] [µM] | melting point [°C] | IC50 [2] [µM] | IC50 [3] [µM] | IC50 [4] [µM] | IC50 [5] [µM] | further results |
| --- | --- | --- | --- | --- | --- | --- | --- |
| COc1cccc2c1C(=O)c1c(O)c3c(c(O)c1C2=O)C[C@@](O)(C(=O)CO)C[C@@H]3O[C@H]1C[C@H](N)[C@H](O)[C@H](C)O1 [Doxorubicin, reference compound] | 0.21 ± 0.1 | – | – | – | – | – | – |
| COc1cc(OC)c2c(C)c(C(C)=O)oc2c1 [Compound 2, 1-(4,6-Dimethoxy-3-Methyl-1-Benzofuran-2-yl)Ethanone] | 36.3 ± 4.5 | 115 to 118 | > 100 | > 100 | 67.3 ± 29.7 | > 100 | – |
| CC(C)C[C@H](NC(=O)[C@H](Cc1ccccc1)NC(=O)c1cnccn1)B(O)O [Bortezomib, reference compound] | 0.04 ± 0.01 | – | – | – | – | – | – |
| CCOc1ccc2c(C)c(C(C)=O)oc2c1 [Compound 4, 1-(6-Ethoxy-3-Methyl-1-Benzofuran-2-yl)Ethanone] | 60 ± 9 | 86 to 90 | > 100 | > 100 | 55.3 ± 33.4 | > 100 | – |
| COc1ccc2oc(C(C)=O)c(CBr)c2c1 [Compound 5, 1-[3-(Bromomethyl)-5-Methoxy-1-Benzofuran-2-yl]Ethanone] | 10.3 ± 0.55 | 103 to 106 | 15.6 ± 4.1 | > 100 | 15 ± 0.8 | 17.5 ± 3.5 | – |
| CCOc1cccc2oc(C(C)=O)c(C)c12 [Compound 3, 1-(4-Ethoxy-3-Methyl-1-Benzofuran-2-yl)Ethanone] | 58 ± 21.1 | 60 to 65 | 52.3 ± 22.5 | > 100 | > 100 | 66.4 ± 28.7 | – |
| COc1cc2c(CBr)c(C(C)=O)oc2c(C(C)=O)c1OC [1,1′-[3-(bromomethyl)-5,6-dimethoxy-1-benzofuran-2,7-diyl]diethanone] | – | – | – | – | – | – | IC50 [6]: 0.1 µM; Toxicity toward HeLa cancer cells [7]: exhibiting toxicity toward neither HeLa cancer cells; IC50 [8]: 5 µM |
| COc1ccc2oc(C(C)=O)c(C)c2c1 [Compound 1, 1-(5-Methoxy-3-Methyl-1-Benzofuran-2-yl)Ethanone] | 57 ± 3.5 | 93 to 96 | > 100 | > 100 | > 100 | 80 ± 20 | – |
| COc1cc2oc(C(C)=O)c(CBr)c2c(OC)c1Br [Compound 7, 1-[5-Bromo-3-(Bromomethyl)-4,6-Dimethoxy-1-Benzofuran-2-yl]Ethanone] | 50 ± 10 | 165 to 171 | 47.1 ± 22.2 | > 100 | 5.69 ± 5.67 | 40 ± 15 | MIC [9]: > 512 µg/mL; MIC [10]: 16 µg/mL (≈ 40.8 µM); MIC [11]: 16 µg/mL (≈ 40.8 µM); MIC [12]: > 512 µg/mL; MIC [13]: > 512 µg/mL; MIC [14]: 64 µg/mL (≈ 163 µM); MIC [15]: 16 µg/mL (≈ 40.8 µM); MIC [16]: 32 µg/mL (≈ 81.6 µM); MIC [17]: > 250 µg/mL |
| CCOc1ccc2c(CBr)c(C(C)=O)oc2c1 [Compound 9, 1-[3-(Bromomethyl)-6-Ethoxy-1-Benzofuran-2-yl]Ethanone] | 14.4 ± 3.7 | 98 to 105 | > 100 | > 100 | 22.8 ± 1.51 | 40 ± 20 | – |

Source: publication PMC10888192, “New Derivatives of 1-(3-Methyl-1-Benzofuran-2-yl)Ethan-1-one: Synthesis and Preliminary Studies of Biological Activity” (International Journal of Molecular Sciences, 2024)
